Patent EP2787003A1, “Antimicrobial peptide produced by marine sponge-derived Bacillus subtilis” (priority 2013, dated 2014)

Legend:
S. aureus = experiment: Spot on lawn assay; format: cell-based, Staphylococcus aureus NCDO 949; design: key: +, clear halo of growth inhibition; ++: multiple +, increased activity as assessed visually by the increased diameter of the inhibition zone; +++: multiple +, increased activity as assessed visually by the increased diameter of the inhibition zone; ++++: multiple +, increased activity as assessed visually by the increased diameter of the inhibition zone; +++++: multiple +, increased activity as assessed visually by the increased diameter of the inhibition zone; -, no inhibition; conditions: indicator S. aureus
Method: (§1) Antimicrobial activity of isolate MMA7 against the indicator strains was initially assessed with a deferred antagonism assay as described by Phelan et al. (2012). Subsequent testing of supernatants, crude extracts and purified compounds was carried out with a well and/or a spot on lawn assays. Essentially, 5 µl of samples were spotted onto 20 ml agar plates seeded with the indicator strain to a final OD600 of 0.015, or 30 µl aliquots were applied to a 5 mm well made on identical plates.

MRSA = experiment: Spot on lawn assay; format: cell-based, MRSA ST 530; design: key: +, clear halo of growth inhibition; ++: multiple +, increased activity as assessed visually by the increased diameter of the inhibition zone; +++: multiple +, increased activity as assessed visually by the increased diameter of the inhibition zone; ++++: multiple +, increased activity as assessed visually by the increased diameter of the inhibition zone; +++++: multiple +, increased activity as assessed visually by the increased diameter of the inhibition zone; -, no inhibition; conditions: indicator MRSA
C. perfringens = format: cell-based, Clostridium perfringens NCDO 1799; design: key: +, clear halo of growth inhibition; ++: multiple +, increased activity as assessed visually by the increased diameter of the inhibition zone; +++: multiple +, increased activity as assessed visually by the increased diameter of the inhibition zone; ++++: multiple +, increased activity as assessed visually by the increased diameter of the inhibition zone; +++++: multiple +, increased activity as assessed visually by the increased diameter of the inhibition zone; -, no inhibition; conditions: indicator C. perfringens
L. monocytogenes [1] = experiment: Thermal stability, bioactivity by spot on lawn assay
C. parapsilosis = experiment: Spot on lawn assay; format: cell-based, Candida parapsilosis; design: key: +, clear halo of growth inhibition; ++: multiple +, increased activity as assessed visually by the increased diameter of the inhibition zone; +++: multiple +, increased activity as assessed visually by the increased diameter of the inhibition zone; ++++: multiple +, increased activity as assessed visually by the increased diameter of the inhibition zone; +++++: multiple +, increased activity as assessed visually by the increased diameter of the inhibition zone; -, no inhibition; conditions: indicator C. parapsilosis
Method: as §1

C. difficile = experiment: Spot on lawn assay; format: cell-based, Clostridium difficile 001; design: key: +, clear halo of growth inhibition; ++: multiple +, increased activity as assessed visually by the increased diameter of the inhibition zone; +++: multiple +, increased activity as assessed visually by the increased diameter of the inhibition zone; ++++: multiple +, increased activity as assessed visually by the increased diameter of the inhibition zone; +++++: multiple +, increased activity as assessed visually by the increased diameter of the inhibition zone; -, no inhibition; conditions: indicator C. difficile
Method: as §1

proteinase K = proteinase K (Parengyodontium album, UniProt P06873); experiment: Susceptibility to proteolytic enzymes, bioactivity by spot on lawn assay; conditions: proteinase K 1 mg ml^-1, 37 °C, 1 h; indicator L. monocytogenes
[2] = system: protease mixture from Streptomyces griseus; experiment: as above; conditions: Streptomyces griseus protease 1 mg ml^-1, 37 °C, 1 h; indicator L. monocytogenes
[3] = dried pellets from 1.5 ml RP-HPLC-purified fractions
E. faecium = experiment: Spot on lawn assay; format: cell-based, Euterococcous faecium NCIMB 11508; design: key: +, clear halo of growth inhibition; ++: multiple +, increased activity as assessed visually by the increased diameter of the inhibition zone; +++: multiple +, increased activity as assessed visually by the increased diameter of the inhibition zone; ++++: multiple +, increased activity as assessed visually by the increased diameter of the inhibition zone; +++++: multiple +, increased activity as assessed visually by the increased diameter of the inhibition zone; -, no inhibition; conditions: indicator E. faecium
Method: as §1

B. cereus = experiment: Spot on lawn assay; format: cell-based, Bacillus cereus NCIMB 9373; design: key: +, clear halo of growth inhibition; ++: multiple +, increased activity as assessed visually by the increased diameter of the inhibition zone; +++: multiple +, increased activity as assessed visually by the increased diameter of the inhibition zone; ++++: multiple +, increased activity as assessed visually by the increased diameter of the inhibition zone; +++++: multiple +, increased activity as assessed visually by the increased diameter of the inhibition zone; -, no inhibition; conditions: indicator B. cereus
Method: as §1

α-chymotrypsin = α-chymotrypsin (Bos taurus, UniProt P00766); experiment: Susceptibility to proteolytic enzymes, bioactivity by spot on lawn assay; conditions: α-chymotrypsin 1 mg ml^-1, 37 °C, 1 h; indicator L. monocytogenes
L. monocytogenes [4] = experiment: Spot on lawn assay; format: cell-based, Listeria monocytogenes EGDe; design: key: +, clear halo of growth inhibition; ++: multiple +, increased activity as assessed visually by the increased diameter of the inhibition zone; +++: multiple +, increased activity as assessed visually by the increased diameter of the inhibition zone; ++++: multiple +, increased activity as assessed visually by the increased diameter of the inhibition zone; +++++: multiple +, increased activity as assessed visually by the increased diameter of the inhibition zone; -, no inhibition; conditions: indicator L. monocytogenes
Method: as §1

hVISA = experiment: Spot on lawn assay; format: cell-based, hVISA 35197; design: key: +, clear halo of growth inhibition; ++: multiple +, increased activity as assessed visually by the increased diameter of the inhibition zone; +++: multiple +, increased activity as assessed visually by the increased diameter of the inhibition zone; ++++: multiple +, increased activity as assessed visually by the increased diameter of the inhibition zone; +++++: multiple +, increased activity as assessed visually by the increased diameter of the inhibition zone; -, no inhibition; conditions: indicator hVISA

Sequence of proteinase K (P06873 106-384): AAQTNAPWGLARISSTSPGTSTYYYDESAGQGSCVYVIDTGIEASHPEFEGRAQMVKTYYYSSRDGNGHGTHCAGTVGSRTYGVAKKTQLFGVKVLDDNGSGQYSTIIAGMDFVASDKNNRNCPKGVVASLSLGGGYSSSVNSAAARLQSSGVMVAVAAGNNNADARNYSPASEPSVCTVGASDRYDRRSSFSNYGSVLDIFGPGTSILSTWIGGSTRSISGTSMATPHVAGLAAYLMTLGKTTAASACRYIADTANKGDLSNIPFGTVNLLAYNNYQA

C=C1NC(=O)[C@@H]2CSC[C@@H](NC(=O)[C@@H]3CS[C@@H](C)[C@H]4NC(=O)[C@H](Cc5ccccc5)NC(=O)[C@H](NC(=O)[C@H](CCCNC(=N)N)NC(=O)[C@@H]5CSC[C@@H](NC(=O)[C@H](CCC(N)=O)NC(=O)[C@@H](NC(=O)[C@@H](NC(=O)/C(=C/C)NC(=O)[C@H](CCCCN)NC(=O)CNC(=O)[C@@H](NC(=O)/C(=C/C)NC(=O)[C@H](C)NC(=O)[C@H](Cc6c[nH]c7ccccc67)NC(=O)C(=O)CC)[C@@H](C)CC)[C@@H](C)CC)C(C)C)C(=O)N[C@@H](C(C)C)C(=O)N[C@@H](CCCCN)C(=O)N[C@@H](CCCCN)C(=O)N5)[C@H](C)SC[C@H](NC4=O)C(=O)NCC(=O)N3)C(=O)N[C@@H](CC(C)C)C(=O)NCC(=O)N[C@H](CSC[C@@H](C(=O)N[C@@H](CC(N)=O)C(=O)O)NC(=O)[C@H](CC(N)=O)NC1=O)C(=O)N2 [Subtilomycin]
Antimicrobial activity, spot on lawn assay (S. aureus): +
Antimicrobial activity, spot on lawn assay (MRSA): +
Antimicrobial activity, spot on lawn assay (C. perfringens): -
Activity after heat treatment (L. monocytogenes [1]; 100 °C for 1 hr, L. monocytogenes): no activity
Activity after heat treatment (L. monocytogenes [1]; wide range of temperatures, including 100 °C for 30 minutes): stable
Antimicrobial activity, spot on lawn assay (C. parapsilosis): -
Antimicrobial activity, spot on lawn assay (C. difficile): -
Antimicrobial activity after proteolytic treatment (proteinase K): None of the treatments resulted in a decrease of activity
Antimicrobial activity after proteolytic treatment [2]: complete loss of activity
Solubility in water [3]: fully soluble
Antimicrobial activity, spot on lawn assay (E. faecium): -
Antimicrobial activity, spot on lawn assay (B. cereus): ++
Antimicrobial activity after proteolytic treatment (α-chymotrypsin): None of the treatments resulted in a decrease of activity
Antimicrobial activity, spot on lawn assay (L. monocytogenes [4]): ++
Antimicrobial activity, spot on lawn assay (hVISA): +
